Source: ChEMBL document CHEMBL1201862, “PubChem BioAssay data set” (2004)
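Exposure lasted 48 hours, with cells grown in 96-well plates and compounds tested at five concentrations. At the GI50, growth is halved.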 Calls of active or inactive are those of the source. No stated cut-off is given here; in the data, active = GI50 up to about 1.1 µM and inactive = higher.

What was measured:
Assay in all cases: NCI tumour cell line growth inhibition, 48 h
MOLT-4 = system: MOLT-4
UO-31 = system: UO-31
SW-620 = system: SW-620
LOX IMVI = system: LOX IMVI
RPMI-8226 = system: RPMI-8226
SK-MEL-2 = system: SK-MEL-2
UACC-257 = system: UACC-257
EKVX = system: EKVX
OVCAR-3 = system: OVCAR-3
786-0 = system: 786-0
NCI-H226 = system: NCI-H226
IGROV-1 = system: IGROV-1
SK-MEL-5 = system: SK-MEL-5
SK-MEL-28 = system: SK-MEL-28
ACHN = system: ACHN
HOP-92 = system: HOP-92
SNB-75 = system: SNB-75
A498 = system: A498
SK-OV-3 = system: SK-OV-3

Measured: GI50

O=C(CC1SC(Nc2ccccc2Cl)=NC1=O)Nc1ccc(Cl)cc1Cl (stereo not given)
inactive: MOLT-4 > 100 µM | UO-31 > 100 µM | SW-620 > 100 µM | LOX IMVI > 100 µM | RPMI-8226 54 µM | SK-MEL-2 81.1 µM | UACC-257 > 100 µM | EKVX > 100 µM | OVCAR-3 > 100 µM | 786-0 > 100 µM | NCI-H226 > 100 µM | IGROV-1 > 100 µM | SK-MEL-5 > 100 µM | SK-MEL-28 > 100 µM | ACHN > 100 µM | HOP-92 > 100 µM | SNB-75 > 100 µM

COc1ccc(C2N3CCCCC3[C@@H]3c4[nH]c5ccccc5c4CCN23)c(OC)c1 (stereo not given in full)
inactive: MOLT-4 21 µM | UO-31 23.5 µM | SW-620 33.7 µM | RPMI-8226 15.8 µM | SK-MEL-2 14.6 µM | UACC-257 26.2 µM | EKVX > 100 µM | OVCAR-3 24.6 µM | 786-0 33.7 µM | IGROV-1 45.1 µM | SK-MEL-5 16.3 µM | SK-MEL-28 19.1 µM | A498 15.5 µM | ACHN 23.6 µM | HOP-92 49.9 µM | SK-OV-3 30.4 µM

COC(=O)C12CC3CC(C1)CC(C(=O)OC)(C3)C2
inactive: MOLT-4 > 100 µM | UO-31 > 100 µM | SW-620 > 100 µM | LOX IMVI > 100 µM | RPMI-8226 > 100 µM | UACC-257 > 100 µM | EKVX > 100 µM | OVCAR-3 > 100 µM | 786-0 > 100 µM | IGROV-1 > 100 µM | SK-MEL-5 > 100 µM | SK-MEL-28 > 100 µM | A498 > 100 µM | ACHN > 100 µM | HOP-92 > 100 µM | SNB-75 > 100 µM | SK-OV-3 > 100 µM

Cc1ccccc1C(=O)Oc1ccc(Oc2ccccc2)cc1
inactive: MOLT-4 67 µM | UO-31 20.3 µM | SW-620 73.6 µM | RPMI-8226 > 100 µM | SK-MEL-2 > 100 µM | UACC-257 > 100 µM | EKVX 73.5 µM | OVCAR-3 > 100 µM | 786-0 > 100 µM | NCI-H226 > 100 µM | IGROV-1 > 100 µM | SK-MEL-5 > 100 µM | A498 77.6 µM | ACHN 28.4 µM | SNB-75 > 100 µM | SK-OV-3 > 100 µM

COc1cccc([C@@]2(O)c3c(ccc(O)c3OC)[C@H]2OC)c1OC
inactive: MOLT-4 45.5 µM | UO-31 36.4 µM | SW-620 28.6 µM | RPMI-8226 39.1 µM | SK-MEL-2 37.8 µM | UACC-257 98.2 µM | EKVX 47.2 µM | OVCAR-3 23.9 µM | 786-0 14.4 µM | NCI-H226 43.5 µM | IGROV-1 40.6 µM | SK-MEL-5 37.9 µM | SK-MEL-28 38.1 µM | A498 58.1 µM | ACHN 31.3 µM | HOP-92 62.7 µM | SNB-75 47.6 µM | SK-OV-3 31.8 µM

O=C(N/N=C/c1ccccc1O)c1cccc([N+](=O)[O-])c1
inactive: MOLT-4 3.1 µM | UO-31 7.82 µM | SW-620 4.54 µM | LOX IMVI 18.4 µM | RPMI-8226 8.04 µM | SK-MEL-2 21.8 µM | UACC-257 9.48 µM | EKVX 21.1 µM | OVCAR-3 1.71 µM | 786-0 6.47 µM | IGROV-1 13.7 µM | SK-MEL-5 9.98 µM | SK-MEL-28 25 µM | A498 76.7 µM | ACHN 8.41 µM | SK-OV-3 15 µM

Nc1cc2c3c(cccc3c1)C(=O)N(CCN1CCN(CCN3C(=O)c4cccc5cc(N)cc(c45)C3=O)CC1)C2=O
inactive: MOLT-4 25.3 µM | UO-31 37.9 µM | SW-620 38.8 µM | RPMI-8226 > 100 µM | SK-MEL-2 > 100 µM | UACC-257 > 100 µM | EKVX > 100 µM | OVCAR-3 > 100 µM | 786-0 > 100 µM | NCI-H226 31.5 µM | IGROV-1 > 100 µM | SK-MEL-5 > 100 µM | SK-MEL-28 > 100 µM | A498 > 100 µM | ACHN > 100 µM | HOP-92 > 100 µM | SNB-75 > 100 µM | SK-OV-3 > 100 µM

CCCC1=C(CC)C(C(=O)Nc2c(C)cccc2C)=NC(S)N1 (stereo not given)
inactive: MOLT-4 > 100 µM | UO-31 > 100 µM | SW-620 > 100 µM | RPMI-8226 > 100 µM | SK-MEL-2 > 100 µM | UACC-257 > 100 µM | EKVX > 100 µM | OVCAR-3 > 100 µM | 786-0 > 100 µM | NCI-H226 > 100 µM | IGROV-1 > 100 µM | SK-MEL-5 > 100 µM | SK-MEL-28 > 100 µM | A498 > 100 µM | ACHN > 100 µM | HOP-92 > 100 µM | SNB-75 59 µM

CSc1ccc2c(cc1=O)C(NC(=O)c1ccc(C#N)cc1)CCc1cc(O)c(O)c(O)c1-2 (stereo not given)
inactive: MOLT-4 22.5 µM | UO-31 75.9 µM | SW-620 19.5 µM | UACC-257 12.2 µM | EKVX 22.4 µM | OVCAR-3 36.6 µM | 786-0 37.2 µM | NCI-H226 26.2 µM | SK-MEL-5 15.4 µM | SK-MEL-28 > 100 µM | A498 44.5 µM | ACHN > 100 µM | SNB-75 4.2 µM | SK-OV-3 27.4 µM

Cc1ccc(C)c(NC(=O)CC2SC(Nc3ccccc3Cl)=NC2=O)c1 (stereo not given)
inactive: MOLT-4 81.5 µM | UO-31 75.9 µM | SW-620 > 100 µM | SK-MEL-2 > 100 µM | UACC-257 55.3 µM | EKVX > 100 µM | OVCAR-3 > 100 µM | 786-0 > 100 µM | NCI-H226 > 100 µM | IGROV-1 > 100 µM | SK-MEL-5 36.1 µM | SK-MEL-28 > 100 µM | A498 > 100 µM | ACHN 71.1 µM | HOP-92 27.7 µM | SNB-75 55.7 µM | SK-OV-3 > 100 µM

Cc1ccc(Oc2ccc([N+](=O)[O-])cc2[N+](=O)[O-])c(C)c1
inactive: MOLT-4 21.5 µM | UO-31 40.5 µM | SW-620 47.1 µM | RPMI-8226 26.5 µM | SK-MEL-2 56.9 µM | UACC-257 26.1 µM | EKVX 88.7 µM | OVCAR-3 35.2 µM | 786-0 71.8 µM | NCI-H226 44.9 µM | IGROV-1 > 100 µM | SK-MEL-5 21.1 µM | SK-MEL-28 67.8 µM | A498 37.9 µM | ACHN 47.6 µM | SNB-75 37.5 µM | SK-OV-3 > 100 µM

COc1ccc(-c2cc(=O)c3c(O)c(OC)c(O)c(OC)c3o2)cc1OC
inactive: MOLT-4 42.3 µM | UO-31 21.5 µM | SW-620 > 100 µM | RPMI-8226 46 µM | UACC-257 > 100 µM | EKVX > 100 µM | 786-0 > 100 µM | NCI-H226 22.2 µM | IGROV-1 84.3 µM | SK-MEL-5 > 100 µM | SK-MEL-28 > 100 µM | A498 36.4 µM | ACHN 33 µM | HOP-92 25.1 µM | SNB-75 21.8 µM | SK-OV-3 80 µM

COc1cc2ccc3c4cc(OC)c(OC(C)C)cc4c[n+](C)c3c2cc1OC
inactive: MOLT-4 > 100 µM | UO-31 > 100 µM | SW-620 71.6 µM | LOX IMVI 54.3 µM | RPMI-8226 > 100 µM | SK-MEL-2 30.8 µM | UACC-257 28.2 µM | EKVX > 100 µM | OVCAR-3 19.7 µM | 786-0 99.3 µM | NCI-H226 71.3 µM | IGROV-1 74.5 µM | SK-MEL-5 42 µM | SK-MEL-28 33.6 µM | ACHN > 100 µM | HOP-92 36.7 µM | SNB-75 34 µM | SK-OV-3 > 100 µM

CN1N=C(Nc2ccccc2)Sc2c1cnn(-c1ccccc1)c2=O
inactive: MOLT-4 > 100 µM | UO-31 83.2 µM | SW-620 > 100 µM | LOX IMVI 87.3 µM | RPMI-8226 93.3 µM | SK-MEL-2 > 100 µM | UACC-257 > 100 µM | EKVX > 100 µM | OVCAR-3 28.1 µM | 786-0 > 100 µM | IGROV-1 > 100 µM | A498 > 100 µM | ACHN > 100 µM | HOP-92 6.62 µM | SK-OV-3 > 100 µM

O=C1OC(c2ccccc2)=N/C1=C\c1cc(Cl)ccc1Cl
inactive: MOLT-4 23 µM | UO-31 > 100 µM | SW-620 34.9 µM | RPMI-8226 44.8 µM | SK-MEL-2 > 100 µM | UACC-257 > 100 µM | EKVX > 100 µM | 786-0 62.2 µM | IGROV-1 > 100 µM | SK-MEL-5 > 100 µM | SK-MEL-28 > 100 µM | A498 > 100 µM | ACHN > 100 µM | HOP-92 > 100 µM | SNB-75 3.48 µM

COc1cccc(-c2cc(=O)c3cc(C)c(C)c(C(=O)O)c3o2)c1
inactive: MOLT-4 > 100 µM | UO-31 > 100 µM | SW-620 > 100 µM | LOX IMVI > 100 µM | RPMI-8226 > 100 µM | SK-MEL-2 > 100 µM | UACC-257 > 100 µM | EKVX > 100 µM | OVCAR-3 > 100 µM | 786-0 > 100 µM | IGROV-1 > 100 µM | SK-MEL-5 > 100 µM | SK-MEL-28 > 100 µM | A498 > 100 µM | ACHN > 100 µM | HOP-92 > 100 µM | SNB-75 16.9 µM | SK-OV-3 > 100 µM
